Data published in PubChem BioAssay AID2432 (Johns Hopkins Ion Channel Center, 2010).

Target: Potassium voltage-gated channel subfamily KQT member 2 (Rattus norvegicus) (UniProt O88943)
Assay: KCNQ2 point mutants response to potentiator, late-stage follow-up, mechanism study for KCNQ2 potentiator project, cell-based, rat KCNQ2, manual patch clamp, mode of action (AID 2432)
Settings: HEK293-KCNQ2 manual patch clamp, peak current ratio, at 10 µM; for V1/2: stronger effect = lower value

Chain of Potassium voltage-gated channel subfamily KQT member 2 (Rattus norvegicus) (O88943 whole entry, looked up): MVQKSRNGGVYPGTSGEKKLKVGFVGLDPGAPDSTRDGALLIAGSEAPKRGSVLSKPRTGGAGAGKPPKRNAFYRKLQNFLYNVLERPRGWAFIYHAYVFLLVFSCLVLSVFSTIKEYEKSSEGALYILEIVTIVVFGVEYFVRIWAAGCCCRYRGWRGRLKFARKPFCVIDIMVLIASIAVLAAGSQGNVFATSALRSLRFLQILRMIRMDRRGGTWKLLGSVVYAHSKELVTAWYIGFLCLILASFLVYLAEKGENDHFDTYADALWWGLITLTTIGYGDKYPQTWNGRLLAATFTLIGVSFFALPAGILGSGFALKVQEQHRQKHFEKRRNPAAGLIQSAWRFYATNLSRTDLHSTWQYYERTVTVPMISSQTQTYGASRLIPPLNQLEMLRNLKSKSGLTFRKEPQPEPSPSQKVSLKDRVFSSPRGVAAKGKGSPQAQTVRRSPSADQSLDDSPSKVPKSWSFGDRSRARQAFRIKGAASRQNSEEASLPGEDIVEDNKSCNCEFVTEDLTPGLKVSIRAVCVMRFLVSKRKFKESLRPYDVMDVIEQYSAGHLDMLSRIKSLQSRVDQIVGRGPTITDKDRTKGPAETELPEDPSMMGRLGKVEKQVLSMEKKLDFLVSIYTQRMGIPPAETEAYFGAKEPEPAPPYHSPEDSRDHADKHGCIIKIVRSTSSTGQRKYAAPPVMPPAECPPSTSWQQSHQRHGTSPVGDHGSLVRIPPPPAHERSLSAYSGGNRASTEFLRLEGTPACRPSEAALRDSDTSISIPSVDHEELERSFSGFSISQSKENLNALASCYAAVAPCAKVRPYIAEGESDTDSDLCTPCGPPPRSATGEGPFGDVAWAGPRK

- current ratio I/I0 (stronger effect = higher value): 1.9
- V1/2 (measured here: L249A mutant V1/2): -41.8 mV
- current ratio I/I0 (measured here: L249A mutant current ratio, stronger effect = higher value): 1.8
- V1/2 (measured here: L249A/L275A double mutant V1/2): -9.1 mV
- current ratio I/I0 (measured here: L249A/L275A double mutant current ratio, stronger effect = higher value): 2.3
- V1/2 (measured here: L275A mutant V1/2): -28.3 mV
- current ratio I/I0 (measured here: L275A mutant current ratio, stronger effect = higher value): 1.8
- V1/2 (measured here: W236L mutant V1/2): -38.6 mV
- current ratio I/I0 (measured here: W236L mutant current ratio, stronger effect = higher value): 1.7
- deactivation tau (measured here: WT deactivation time constant, stronger effect = higher value): 172 ms
- V1/2 (measured here: WT half-activation voltage with compound): -55.3 mV
Compound: O=C(Nc1ccc(Cl)nc1)c1ccc(F)cc1
